Active and inactive are the calls of the source. The calls are words filed in the database; no cut-off is given here.
What was measured:
COLO 205 [1] = test: Antitumor activity against human COLO 205 cells xenografted in athymic nude mouse model assessed as tumor growth inhibition at 30 mg/kg, ip administered twice daily in presence of gemcitabine (Gemcitabine alone = 40%); type: functional; settings: read-out: TGI
COLO 205 [2] = test: Potentiation factor, ratio of IC50 for human COLO 205 cells to IC50 for human COLO 205 cells in presence of gemcitabine; type: functional
COLO 205 [3] = test: Antitumor activity against human COLO 205 cells xenografted in athymic nude mouse model assessed as tumor growth delay by measuring test to control tumor ratio at 4 mg/kg, ip administered twice daily in presence of gemcitabine (Gemcitabine alone= 8%); type: functional
COLO 205 [4] = test: Antitumor activity against human COLO 205 cells xenografted in athymic nude mouse model assessed as potentiated tumor growth inhibition at 15 mg/kg, ip administered twice daily in presence of gemcitabine relative to control; type: functional; settings: read-out: TGI
COLO 205 [5] = test: Antitumor activity against human COLO 205 cells xenografted in athymic nude mouse model assessed as tumor growth inhibition at 7.5 mg/kg, ip administered twice daily in presence of gemcitabine (Gemcitabine alone = 40%); type: functional; settings: read-out: TGI
COLO 205 [6] = test: Antitumor activity against human COLO 205 cells xenografted in athymic nude mouse model assessed as gross log cell kill at 7.5 mg/kg, ip administered once daily in presence of gemcitabine (Gemcitabine alone = 0.27%); type: functional
MDA-MB-231 [7] = test: Antiproliferative activity against human MDA-MB-231 cells deficit of p53 expression assessed as inhibition of cell growth measured after 96 hrs by MTT assay; type: functional, cell-based; settings: MDA-MB-231, 96 h
HT-29 [8] = test: Induction of apoptosis in gemcitabine induced human HT-29 cells assessed as apoptotic cell death measured after 10 hrs by PI staining based flow cytometry analysis (reference value: 0.6%); type: functional
[9] = target: Macrophage colony-stimulating factor 1 receptor (Homo sapiens, UniProt P07333); test: Inhibition of Fms (unknown origin)
K562 = test: Antiproliferative activity against human K562 cells deficit of p53 expression assessed as inhibition of cell growth measured after 96 hrs by MTT assay; type: functional, cell-based; settings: K562, 96 h
COLO 205 [10] = test: Antitumor activity against human COLO 205 cells xenografted in athymic nude mouse model assessed as tumor growth inhibition at 7.5 mg/kg, ip administered once daily in presence of gemcitabine (Gemcitabine alone = 40%); type: functional; settings: read-out: TGI
[11] = Cmax in nu/nu mouse at 4 mg/kg, ip by LCMS analysis; type: ADME, organism-based; settings: in vivo
COLO 205 [12] = test: Antitumor activity against human COLO 205 cells xenografted in athymic nude mouse model assessed as potentiated tumor growth inhibition at 24 mg/kg, ip administered twice daily in presence of gemcitabine relative to control; type: functional; settings: read-out: TGI
COLO 205 [13] = test: Antitumor activity against human COLO 205 cells xenografted in athymic nude mouse model assessed as gross log cell kill at 24 mg/kg, ip administered twice daily in presence of gemcitabine (Gemcitabine alone = 0.5%); type: functional
HT-29 [14] = test: Potentiation factor, ratio of IC50 for human HT-29 cells to IC50 for human HT-29 cells in presence of carboplatin; type: functional
MDA-MB-231 [15] = test: Potentiation factor, ratio of IC50 for human MDA-MB-231 cells to IC50 for human MDA-MB-231 cells in presence of carboplatin; type: functional
COLO 205 [16] = test: Potentiation factor, ratio of IC50 for human COLO 205 cells to IC50 for human COLO 205 cells in presence of carboplatin; type: functional
COLO 205 [17] = test: Antitumor activity against human COLO 205 cells xenografted in athymic nude mouse model assessed as tumor growth delay by measuring test to control tumor ratio at 30 mg/kg, ip administered once daily in presence of gemcitabine (Gemcitabine alone = 3%); type: functional
HT-29 [18] = test: Potentiation of camptothecin induced cytotoxicity in human HT-29 cells assessed as cell survival at 360 nM measured after 4 to 48 hrs by coulter counter method relative to camptothecin alone; type: functional; settings: time 4-48 hrs, read-out: Activity
COLO 205 [19] = test: Antitumor activity against human COLO 205 cells xenografted in athymic nude mouse model assessed as tumor growth inhibition at 40 mg/kg, ip administered twice daily in presence of gemcitabine (Gemcitabine alone= 58%); type: functional; settings: read-out: TGI
COLO 205 [20] = test: Antitumor activity against human COLO 205 cells xenografted in athymic nude mouse model assessed as tumor growth delay by measuring test to control tumor ratio at 15 mg/kg, ip administered twice daily in presence of gemcitabine (Gemcitabine alone = 3%); type: functional
COLO 205 [21] = test: Antitumor activity against human COLO 205 cells xenografted in athymic nude mouse model assessed as gross log cell kill at 20 mg/kg, ip administered once daily in presence of gemcitabine (Gemcitabine alone = 0.5%); type: functional
[22] = AUC (0 to infinity) in nu/nu mouse at 4 mg/kg, ip by LCMS analysis; type: ADME, organism-based; settings: in vivo
COLO 205 [23] = test: Antitumor activity against human COLO 205 cells xenografted in athymic nude mouse model assessed as tumor growth inhibition at 12 mg/kg, ip administered once daily in presence of gemcitabine (Gemcitabine alone= 58%); type: functional; settings: read-out: TGI
HT-29 [24] = test: Upregulation of cyclin B level in gemcitabine induced human HT-29 cells at 360 nM measured after 10 hrs by immunoblot analysis; type: functional, cell-based
HT-29 [25] = test: Inhibition of gemcitabine induced cell cycle arrest in human HT-29 cells assessed as disappearance of cyclin B level at 360 nM measured after 24 hrs by immunoblot analysis relative to control; type: functional
[26] = Toxicity in athymic nude mouse assessed as effect on body weight at 4 to 20 mg/kg, ip administered once daily in presence of gemcitabine; type: organism-based; settings: in vivo, dose 4-20 mg/kg
[27] = Clearance in Sprague-Dawley rat plasma at 4 mg/kg, iv administered as bolus dose by LCMS analysis; type: ADME, organism-based
HT-29 [28] = test: Cytotoxicity in human HT-29 cells assessed as cell survival at 540 nM measured after 4 to 48 hrs by coulter counter method relative to control; type: functional; settings: time 4-48 hrs, read-out: Activity
HT-29 [29] = test: Cytotoxicity in human HT-29 cells assessed as cell survival at 180 nM measured after 4 to 48 hrs by coulter counter method relative to control; type: functional; settings: time 4-48 hrs, read-out: Activity
HT-29 [30] = test: Potentiation of gemcitabine induced cytotoxicity in human HT-29 cells assessed as cell survival at 180 nM measured after 4 to 48 hrs by coulter counter method relative to gemcitabine alone; type: functional; settings: time 4-48 hrs, read-out: Activity
[31] = Cmax in nu/nu mouse at 20 mg/kg, ip by LCMS analysis; type: ADME, organism-based; settings: in vivo
COLO 205 [32] = test: Antitumor activity against human COLO 205 cells xenografted in athymic nude mouse model assessed as potentiated tumor growth inhibition at 12 mg/kg, ip administered once daily in presence of gemcitabine relative to control; type: functional; settings: read-out: TGI
[33] = target: Tyrosine-protein kinase Yes (Homo sapiens, UniProt P07947); test: Inhibition of Yes (unknown origin)
COLO 205 [34] = test: Antitumor activity against human COLO 205 cells xenografted in athymic nude mouse model assessed as tumor growth inhibition at 15 mg/kg, ip administered once daily in presence of gemcitabine (Gemcitabine alone = 40%); type: functional; settings: read-out: TGI
HeLa = test: Inhibition of camptothecin induced DNA damage in human HeLa cells assessed as increase in mitotic index by measuring histone H3 phosphorylation at S10 residue at 0.001 to 1 uM measured after 16 hrs presence of nocodazole by dot blot assay; type: functional, cell-based

Sequence of Tyrosine-protein kinase Yes (P07947 whole entry): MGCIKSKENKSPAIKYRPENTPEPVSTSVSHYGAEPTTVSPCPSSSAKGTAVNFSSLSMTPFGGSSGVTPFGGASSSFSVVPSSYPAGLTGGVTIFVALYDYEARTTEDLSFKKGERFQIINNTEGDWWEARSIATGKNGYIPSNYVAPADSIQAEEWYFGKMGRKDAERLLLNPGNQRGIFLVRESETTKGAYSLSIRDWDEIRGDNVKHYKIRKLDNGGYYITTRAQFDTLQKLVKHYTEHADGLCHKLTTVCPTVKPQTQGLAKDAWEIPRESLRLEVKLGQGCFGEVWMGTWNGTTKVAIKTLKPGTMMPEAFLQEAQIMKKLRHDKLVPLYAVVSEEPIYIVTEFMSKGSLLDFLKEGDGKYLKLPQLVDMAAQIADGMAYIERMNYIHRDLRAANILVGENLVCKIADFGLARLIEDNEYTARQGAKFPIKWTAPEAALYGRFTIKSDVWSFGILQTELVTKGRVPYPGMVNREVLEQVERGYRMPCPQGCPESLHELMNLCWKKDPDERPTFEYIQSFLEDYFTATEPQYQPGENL
Sequence of Macrophage colony-stimulating factor 1 receptor (P07333 whole entry): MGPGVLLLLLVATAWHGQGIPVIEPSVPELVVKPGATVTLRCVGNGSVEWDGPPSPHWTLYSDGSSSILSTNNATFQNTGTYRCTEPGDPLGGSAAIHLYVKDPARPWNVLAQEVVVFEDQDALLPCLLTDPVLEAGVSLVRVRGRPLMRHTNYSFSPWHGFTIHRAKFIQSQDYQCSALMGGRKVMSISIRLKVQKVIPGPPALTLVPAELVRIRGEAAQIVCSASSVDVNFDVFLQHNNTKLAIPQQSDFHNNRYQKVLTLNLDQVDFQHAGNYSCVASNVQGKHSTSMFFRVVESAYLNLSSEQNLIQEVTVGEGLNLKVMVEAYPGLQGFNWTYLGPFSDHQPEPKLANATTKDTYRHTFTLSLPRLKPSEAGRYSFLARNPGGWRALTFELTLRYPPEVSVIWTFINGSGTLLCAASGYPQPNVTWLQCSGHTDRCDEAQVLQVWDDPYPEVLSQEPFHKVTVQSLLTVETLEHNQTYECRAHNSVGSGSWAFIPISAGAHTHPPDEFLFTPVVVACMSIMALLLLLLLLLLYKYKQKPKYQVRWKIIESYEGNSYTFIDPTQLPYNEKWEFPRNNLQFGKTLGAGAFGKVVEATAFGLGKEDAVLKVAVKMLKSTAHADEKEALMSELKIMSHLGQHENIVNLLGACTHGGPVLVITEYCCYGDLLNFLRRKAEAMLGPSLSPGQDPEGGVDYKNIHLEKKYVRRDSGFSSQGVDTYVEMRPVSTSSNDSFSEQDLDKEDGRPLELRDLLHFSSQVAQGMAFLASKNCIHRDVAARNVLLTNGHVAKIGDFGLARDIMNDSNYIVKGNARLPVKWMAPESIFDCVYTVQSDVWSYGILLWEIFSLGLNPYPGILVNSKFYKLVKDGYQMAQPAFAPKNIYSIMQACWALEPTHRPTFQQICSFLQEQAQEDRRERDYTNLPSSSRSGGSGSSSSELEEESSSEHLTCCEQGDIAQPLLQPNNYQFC

Cn1cc(-c2[nH]c3cc(NC(=O)[C@H](N)C4CCCCC4)cc4c3c2C=NNC4=O)cn1
inhibition in vivo at 30 mg/kg (COLO 205 [1]): 78% | PF50 (COLO 205 [2]): 11.3 | T/C (COLO 205 [3]): 8 | inhibition in vivo at 15 mg/kg (COLO 205 [4]): 44% | inhibition in vivo at 7.5 mg/kg (COLO 205 [5]): 70% | LCK (COLO 205 [6]): 0.52 | IC50 (MDA-MB-231 [7]): 1400 nM | Activity (HT-29 [8]): 0.1% | IC50 [9]: 20 nM | IC50 (K562): 420 nM | inhibition in vivo at 7.5 mg/kg (COLO 205 [10]): 54% | Cmax [11]: 270 ng/mL | inhibition in vivo at 24 mg/kg (COLO 205 [12]): 55% | LCK (COLO 205 [13]): 0.75 | PF50 (HT-29 [14]): 3 | PF50 (MDA-MB-231 [15]): 2.55 | PF50 (COLO 205 [16]): 5.4 | T/C (COLO 205 [17]): 7.25 | viability at 0.36 µM (HT-29 [18]): 84% | inhibition in vivo at 40 mg/kg (COLO 205 [19]): 90% | T/C (COLO 205 [20]): 11.25 | LCK (COLO 205 [21]): 0.75 | AUC(0-inf) [22]: 490 ng·h/mL | inhibition in vivo at 12 mg/kg (COLO 205 [23]): 68% | Activity (HT-29 [24]): Active | inhibition at 0.36 µM (HT-29 [25]): 100% | Activity [26]: Non-Toxic | clearance [27]: 11.8 mL/min/kg | viability at 0.54 µM (HT-29 [28]): 83% | viability at 0.18 µM (HT-29 [29]): 97% | viability at 0.18 µM (HT-29 [30]): 75% | Cmax [31]: 1290 ng/mL | inhibition in vivo at 12 mg/kg (COLO 205 [32]): 23% | IC50 [33]: 29 nM | inhibition in vivo at 15 mg/kg (COLO 205 [34]): 67% | EC50 (HeLa): 38 nM

From ChEMBL document CHEMBL5705884, “Breaching the DNA damage checkpoint via PF-00477736, a novel small-molecule inhibitor of checkpoint kinase 1” (Mol Cancer Ther, 2008)
